# In PMC8147293, “Library of Selenocyanate and Diselenide Derivatives as In Vivo Antichagasic Compounds Targeting Trypanosoma cruzi Mitochondrion” (Pharmaceuticals, 2021):
# Like-named read-outs stand apart in the source and are kept apart here.
# What was measured:
# [1] = tested on: Mammalian Vero cells; test: Cytotoxicity test on Vero cells (resazurin); format: cell-based; details: Chlorocebus sabaeus; for IC50: Table S1, cultured Vero cells, read-out: Toxicity IC50 Vero cell; for CC50: 72 h, Table 1, Vero cells, 48 h + 24 h resazurin, read-out: Toxicity IC50 Vero Cell
# Procedure: Mammalian Vero cells (EACC No. 84113001), cultured as previously reported, were used to determine the cytotoxicity of the tested compounds [56]. In short, 1.25 × 10^4 Vero cells·mL^−1 were treated by adding the compounds at a concentration range from 400 to 1 µM in 96-well microplates (200 µL·well^−1) at 37 °C for 48 h. Subsequently, resazurin sodium salt (Sigma-Aldrich) was added to be incubated for further 24 h. Finally, cell viability was determined following the same procedure as described to assess the trypanocidal activity in the epimastigotes. Each compound concentration was tested in triplicate in three independent experiments.
# [2] = tested on: epimastigotes of T. cruzi Arequipa strain; test: Screening against extracellular epimastigotes (resazurin); format: cell-based, Trypanosoma cruzi; details: for IC50: Trypanosoma cruzi; for Selectivity Index Epimast.: IC50 Vero cells/IC50 epimastigotes
# Procedure: Trypanocidal activity against epimastigotes of T. cruzi Arequipa strain (MHOM/Pe/2011/Arequipa, discrete typing unit V) was tested as previously described. In short, 5 × 10^5 epimastigotes·mL^−1 were treated by adding the tested compounds at a concentration range from 100 to 0.2 µM in 96-well microplates (200 µL·well^−1) for 48 h. Subsequently, resazurin sodium salt (Sigma-Aldrich) was added to be incubated for further 24 h. Finally, the absorbance was measured, and the trypanocidal activity was expressed as the IC50 (inhibitory concentration 50) using GraphPad Prism 6 software. Each compound concentration was tested in triplicate in three independent experiments.
# [3] = tested on: Trypanosoma cruzi intracellular amastigotes; test: Screening against intracellular amastigotes in Vero cells (Giemsa counting); format: cell-based; details: for Selectivity Index Amast.: IC50 Vero cells/IC50 amastigotes; for IC50: Trypanosoma cruzi, Table 1, intracellular amastigotes in Vero cells, 72 h, read-out: Activity IC50 Amast.
# Procedure: Trypanocidal activity against amastigotes was determined according to the literature reported previously. […]. […] Each compound concentration was tested in triplicate in four separate determinations.
# [4] = tested on: Trypanosoma cruzi bloodstream trypomastigotes (BTs); test: Screening against bloodstream trypomastigotes (resazurin); format: cell-based; details: for Selectivity Index Trypomast.: IC50 Vero cells/IC50 trypomastigotes; for IC50: Trypanosoma cruzi, Table 1, bloodstream trypomastigotes, 24 h treatment + 4 h resazurin, read-out: Activity IC50 Trypomast.
# Procedure: 2 × 10^6 Bloodstream trypomastigotes (BTs), obtained by cardiac puncture from infected BALB/c mice as previously described, were treated by adding the tested compounds at a concentration range from 50 to 0.1 µM in 96-well microplates (200 µL·well^−1) at 37 °C. After 24 h of treatment, resazurin sodium salt (Sigma-Aldrich) was added to be incubated for further 4 h. Finally, trypanocidal activity was determined following the same procedure as described to assess the trypanocidal activity in the epimastigotes. Each compound concentration was tested in triplicate in three independent experiments.
# [5] = Table S1, cultured epimastigote form of T. cruzi, read-out: Activity IC50
# [6] = Table 1, T. cruzi epimastigotes, 48 h treatment + 24 h resazurin, read-out: Activity IC50 Epimast.
Structure (SMILES),IC50 [1] [µM],"IC50 [2, 5] [µM]",further results
N#C[Se]Cc1ccc(Br)cc1 [compound 1],68.4 ± 3.7,39.1 ± 2.5,
Brc1ccc(C[Se][Se]Cc2ccc(Br)cc2)cc1 [compound 2],30.7 ± 2.1,39.3 ± 4.1,
N#C[Se]Cc1ccccc1 [compound 3],53.3 ± 2.5,,
c1ccc(C[Se][Se]Cc2ccccc2)cc1 [compound 4],26.8 ± 1.3,35.4 ± 3.6,
N#C[Se]Cc1ccc([N+](=O)[O-])cc1 [compound 5],28.6 ± 2.4,21.8 ± 2.2,
O=[N+]([O-])c1ccc(C[Se][Se]Cc2ccc([N+](=O)[O-])cc2)cc1 [compound 6],28.2 ± 1.1,13.6 ± 0.7,
N#C[Se]Cc1ccc(C(F)(F)F)cc1 [compound 7],50.5 ± 3.8,34.1 ± 2.6,
CSc1ccc(C[Se]C#N)cc1 [compound 9],67.3 ± 4.9,11.3 ± 0.7,
Cc1ccc(C[Se]C#N)cc1 [compound 11],,≤ 10,"Selectivity Index Amast. [3]: 20; IC50 [3]: 3.1 ± 0.1 µM; CC50 [1]: 61.3 ± 3.7 µM; Selectivity Index Epimast. [2]: 20; IC50 [2, 6]: 3 ± 0.4 µM; Selectivity Index Trypomast. [4]: 14; IC50 [4]: 4.5 ± 0.6 µM"
Cc1ccc(C[Se][Se]Cc2ccc(C)cc2)cc1 [compound 12],4.9 ± 0.7,19.4 ± 1.5,
N#C[Se]Cc1ccc(C#N)cc1 [compound 13],12.8 ± 0.7,1.9 ± 0.7,
N#Cc1ccc(C[Se][Se]Cc2ccc(C#N)cc2)cc1 [compound 14],8.9 ± 1.5,27.9 ± 2.9,
O=[N+]([O-])c1ccccc1C[Se][Se]Cc1ccccc1[N+](=O)[O-] [compound 16],18.9 ± 2.4,18.4 ± 2.3,
N#C[Se]Cc1cccc([N+](=O)[O-])c1 [compound 17],81.2 ± 4.8,37.4 ± 2.6,
O=[N+]([O-])c1cccc(C[Se][Se]Cc2cccc([N+](=O)[O-])c2)c1 [compound 18],7.3 ± 1.1,1.5 ± 0.3,
N#C[Se]Cc1ccccc1C#N [compound 19],18.5 ± 0.7,29.1 ± 3,
N#Cc1ccccc1C[Se][Se]Cc1ccccc1C#N [compound 20],,≤ 10,"Selectivity Index Amast. [3]: 16; IC50 [3]: 1 ± 0.1 µM; CC50 [1]: 16.4 ± 0.5 µM; Selectivity Index Epimast. [2]: 13; IC50 ([2]; 72 h, Table 1, T. cruzi epimastigotes, 48 h treatment + 24 h resazurin, read-out: Activity IC50 Epimast.): 1.3 ± 0.2 µM; Selectivity Index Trypomast. [4]: 18; IC50 ([4]; 28 h): 0.9 µM"
N#C[Se]Cc1cccc(C#N)c1 [compound 21],,≤ 10,"Selectivity Index Amast. [3]: 27; IC50 [3]: 0.8 ± 0.1 µM; CC50 [1]: 21.7 ± 1.8 µM; Selectivity Index Epimast. [2]: 22; IC50 [2, 6]: 1 ± 0.2 µM; Selectivity Index Trypomast. [4]: 24; IC50 [4]: 0.9 ± 0.1 µM"
N#Cc1cccc(C[Se][Se]Cc2cccc(C#N)c2)c1 [compound 22],29.8 ± 3,39.7 ± 2.6,
N#C[Se]Cc1cc2c(cc1Br)OCO2 [compound 23],38.9 ± 2.1,14.1 ± 0.9,
Brc1cc2c(cc1C[Se][Se]Cc1cc3c(cc1Br)OCO3)OCO2 [compound 24],61.8 ± 4.1,45.7 ± 2.6,

Structure (SMILES),IC50 [1] [µM],"IC50 [2, 5] [µM]",further results
N#C[Se]Cc1cccc2cccnc12 [compound 25],12.6 ± 0.3,10.3 ± 0.8,
c1cnc2c(C[Se][Se]Cc3cccc4cccnc34)cccc2c1 [compound 26],19.6 ± 1,6.7 ± 0.4,
N#C[Se]Cc1ccc2ccccc2n1 [compound 27],68.3 ± 6.7,99.5 ± 6.1,
N#C[Se]Cc1c2ccccc2cc2ccccc12 [compound 28],169 ± 9.7,21.4 ± 0.9,
N#C[Se]Cc1nc2ccccc2nc1C[Se]C#N [compound 29],67.4 ± 3.5,32.1 ± 1.1,
COc1cc2oc(=O)cc(C[Se]C#N)c2cc1OC [compound 30],109 ± 10.5,30.9 ± 1.4,
N#C[Se]CC(=O)C12CC3CC(CC(C3)C1)C2 [compound 31],85.5 ± 4.9,13.2 ± 0.8,
O=S(=O)(Nc1ccc([Se][Se]c2ccc(NS(=O)(=O)c3ccc(Br)cc3)cc2)cc1)c1ccc(Br)cc1 [compound 33],49.7 ± 3.2,10.2 ± 0.8,
O=S(=O)(Nc1ccc([Se][Se]c2ccc(NS(=O)(=O)c3ccc(Cl)cc3)cc2)cc1)c1ccc(Cl)cc1 [compound 34],29.8 ± 3.4,41.3 ± 2.1,
O=S(=O)(Nc1ccc([Se][Se]c2ccc(NS(=O)(=O)c3ccccc3Cl)cc2)cc1)c1ccccc1Cl [compound 35],69 ± 5.3,28.4 ± 1.7,
O=S(=O)(Nc1ccc([Se][Se]c2ccc(NS(=O)(=O)c3ccc(F)cc3)cc2)cc1)c1ccc(F)cc1 [compound 36],70.8 ± 4.8,11.1 ± 0.8,
O=S(=O)(Nc1ccc([Se][Se]c2ccc(NS(=O)(=O)c3ccccc3F)cc2)cc1)c1ccccc1F [compound 37],39.6 ± 3.1,46.1 ± 3.1,
COc1ccc(S(=O)(=O)Nc2ccc([Se][Se]c3ccc(NS(=O)(=O)c4ccc(OC)cc4)cc3)cc2)cc1 [compound 38],40.3 ± 2.5,27.8 ± 1.6,
O=[N+]([O-])c1ccc(S(=O)(=O)Nc2ccc([Se][Se]c3ccc(NS(=O)(=O)c4ccc([N+](=O)[O-])cc4)cc3)cc2)cc1 [compound 39],11.7 ± 2.7,17.1 ± 1.3,
N#Cc1ccc(S(=O)(=O)Nc2ccc([Se][Se]c3ccc(NS(=O)(=O)c4ccc(C#N)cc4)cc3)cc2)cc1 [compound 40],16 ± 1.7,3.8 ± 0.1,
O=S(=O)(Nc1ccc([Se][Se]c2ccc(NS(=O)(=O)c3ccccc3)cc2)cc1)c1ccccc1 [compound 41],26.5 ± 1.4,6.8 ± 0.7,
O=S(=O)(Nc1ccc([Se][Se]c2ccc(NS(=O)(=O)c3ccc(C(F)(F)F)cc3)cc2)cc1)c1ccc(C(F)(F)F)cc1 [compound 42],36 ± 2.3,5.9 ± 0.4,
Cc1ccc(S(=O)(=O)Nc2ccc([Se][Se]c3ccc(NS(=O)(=O)c4ccc(C)cc4)cc3)cc2)cc1 [compound 43],,≤ 10,"Selectivity Index Amast. [3]: 16; IC50 [3]: 4.2 ± 0.7 µM; CC50 [1]: 66.9 ± 6.2 µM; Selectivity Index Epimast. [2]: 13; IC50 [2, 6]: 5.1 ± 0.6 µM; Selectivity Index Trypomast. [4]: 18; IC50 [4]: 3.7 ± 0.2 µM"
O=S(=O)(Nc1ccc([Se][Se]c2ccc(NS(=O)(=O)c3ccc4ccccc4c3)cc2)cc1)c1ccc2ccccc2c1 [compound 44],30.8 ± 2.2,5.6 ± 1.1,
O=S(=O)(Nc1ccc([Se][Se]c2ccc(NS(=O)(=O)c3cccc4cccnc34)cc2)cc1)c1cccc2cccnc12 [compound 45],14.3 ± 1.1,1.7 ± 0.3,
O=S(=O)(Nc1ccc([Se][Se]c2ccc(NS(=O)(=O)c3cccs3)cc2)cc1)c1cccs1 [compound 48],15.7 ± 1.1,1.8,
